Assay results reported in ChEMBL document CHEMBL1147873, “Synthesis and biological evaluation of novel analogues of dictyostatin” (Bioorg Med Chem Lett, 2007).

Tests used:
Assay type in all cases: functional, cell-based
[1] = system: DLD-1; test: Cytotoxicity against human DLD1 cells after 72 hrs by MTT assay; conditions: DLD-1, 72 h
[2] = system: ASPC1; test: Cytotoxicity against human AsPC1 cells after 72 hrs by MTT assay; conditions: ASPC1, 72 h
[3] = system: NCI; test: Cytotoxicity against human Taxol-adriamycin-resistant NCI cells after 72 hrs by MTT assay
[4] = system: PANC-1; test: Cytotoxicity against human PANC1 cells after 72 hrs by MTT assay; conditions: PANC-1, 72 h

Compound | IC50 [1] [nM] | IC50 [2] [nM] | IC50 [3] [nM] | IC50 [4] [nM]
C=C/C=C\[C@H](C)[C@@H]1OC(=O)/C=C\C=C\[C@@H](C)[C@@H](O)C[C@H](O)/C=C\[C@H](C)[C@H](O)[C@@H](C)CCCC[C@@H](O)[C@@H]1C | 85 | 170 | 1500 | 130
C=C/C=C\[C@H](C)[C@@H]1OC(=O)/C=C\C=C\[C@@H](C)[C@@H](O)C[C@@H](O)/C=C\[C@H](C)[C@H](O)[C@@H](C)C[C@@H](C)CC[C@@H](O)[C@@H]1C | 150 | 410 | 1100 | 240
C=C/C=C\[C@H](C)[C@@H]1OC(=O)/C=C\C=C\[C@@H](C)[C@@H](O)C[C@@H](O)/C=C\[C@H](C)[C@H](O)[C@@H](C)CCCC[C@@H](O)[C@@H]1C | 790 | 2100 | 2100 | 1500
C=C/C=C\[C@H](C)[C@@H]1OC(=O)/C=C\C=C\[C@@H](C)[C@@H](O)C[C@H](OC)/C=C\[C@H](C)[C@H](O)[C@@H](C)C[C@@H](C)CC[C@@H](O)[C@@H]1C | 2.4 | 31 | 8.2 | 9.7
C=C/C=C\[C@H](C)[C@@H]1OC(=O)/C=C\C=C\[C@@H](C)[C@@H](O)C[C@H](O)/C=C\[C@H](C)[C@H](O)[C@@H](C)C[C@@H](C)CC[C@@H](O)[C@@H]1C [DICTYOSTATIN] | – | – | 9.8 | –
C=C/C=C\[C@H](C)[C@H](OC(N)=O)[C@@H](C)[C@H](O)[C@@H](C)C/C(C)=C\[C@H](C)[C@@H](O)[C@@H](C)/C=C\[C@@H](O)C[C@@H]1OC(=O)[C@H](C)[C@@H](O)[C@H]1C [DISERMOLIDE] | – | – | 160 | –
